One series has as its system HUVECs. The experiment in a line: Apoptosis of HUVECs (Annexin-V FACS analysis). In kind it is cell-based, Human. How it is done:
To determine the effect, if any, of sodium meta arsenite on vascularization, the effect on endothelial cells (which are essential for vascularization) was first analyzed. Human umbilical cord vein endothelial cells (HUVECs offered by ATCC) were cultivated in 96-well microculture plates containing F-12K (Sigma) medium supplemented with 10% FBS and endothelial cell growth supplement (ECGS, E2759, Sigma). For the cytotoxicity test of the cells after 24 hour cultivation, the cells were treated with KML001 at the concentration of 0.1 nM, 1 nM, 10 nM, 1 uM, 10 uM and 100 uM. At 24 hours and 48 hours after treatment, 20 μl/well of CellTiter 96® Aqueous One Solution (by Promega) Reagent was added on each well and reacted for one hour at 37° C. The reacted 96-well plates were measured at 490 nm using a spectrophotometer (UVStar, Greiner Bio-One). To analyze apoptosis of HUVECs, the cells were cultivated on F25 flasks using the same method as discussed above and then the cells were treated with sodium meta arsenite at a concentration of 10 uM, 20 uM and 50 uM. Cells were collected after 24 and 48 hours. The collected cells were stained for 30 minutes with Annexin-V for FACS analysis. After two washes, the cells were analyzed by using flow cytometry (FACSCALIBUR, BECTON DICLINSON).

For series [1], the system named is CT26 colon carcinoma cells. In words: Anti-tumor effect in mice bearing subcutaneous CT26 tumors, alone or with irinotecan. Format: in vivo. How it is done: Female BALBc mice bearing subcutaneous CT26 colon carcinoma cells were injected intraperitoneally with sodium meta arsenite (10/mg/kg body weight) or irinotecan alone, or co-administered weekly for four weeks.

A short description of series [2]: Histologic analysis of normal organ tissues for ischemic damage. The note with it: 10 mg/kg intraperitoneal; 8, 24 and 48 hours after injection. In kind it is in vivo, mice. How it is done: (§1) Seven-week-old, female, specific-pathogen-free (BALB/c) white mice (weight: approximately 20 g) purchased from ORIENTBIO Inc. (Seoul Korea) were subcutaneously injected with 2×10^6 cells of the CT26 colon carcinoma cell line per mouse. When the tumor size reached 3 mm in diameter, the control group was injected with a phosphate buffered saline (PBS) solution with 5% dextrose while the experimental group was intraperitoneally injected with 100 μL of KML001 at a concentration of 10 mg/kg with 5% dextrose. At 8, 24 and 48 hours after injection, liver, spleen and tumor tissue samples were taken and placed into a 37% solution of formaldehyde for 24 hours. The tissues were inserted into paraffin and sectioned at 4 μm on a microtome (made by SLEE MAINZ GmbH in Germany) and the sections were placed on slides.

The subject of series [3] is CT26 colon carcinoma cell line. The experiment in a line: Histologic analysis (hematoxylin and eosin) of tumor tissues. The note with it: 10 mg/kg intraperitoneal; 8, 24 and 48 hours after injection; with increasing exposure time; from the central part of the tumors. In kind it is in vivo, mice. How it is done: as §1
The next series relates to β-tubulin mRNA. In words: RT-PCR of tubulin mRNA from HUVECs. In kind it is cell-based, Human. As to conditions: 5 uM, 10 uM and 20 uM, 24 hours and 48 hours after treatment. How it is done: (§2) To determine whether the level of tubulin gene expression is responsible for the change in amount of tubulin protein observed in Example 5, RT-PCR was performed. HUVECs (obtained from ATCC) were cultivated in F25 culture flasks containing F-12K (Sigma) medium supplemented with 10% FBS and endothelial cell growth supplement (ECGS, E2759, Sigma). After cultivation for 24 hours, the cells were treated with sodium meta arsenite at concentrations of 5 uM, 10 uM and 20 uM. […] Total RNA was extracted using Trizol (Invitrogen, USA) and alcohol precipitation. 1 ug of total RNA was used for reverse transcriptase and dT was used for cDNA synthesis. The primer for synthesized cDNA and α-tubulin (sense: 5′-ATTGTGCCTTCATGGTAGAC-3′ (SEQ ID NO. 1), antisense: 5′-TTCTGTCAGGTCAACATTCA-3′) (SEQ ID NO. 2), the primer for β-tubulin (sense: 5′-AACGACCTCGTCTCTGAGTA-3′ (SEQ ID NO. 3), antisense: 5′-AATTCTGAGGGAGAGGAAAG-3′) (SEQ ID NO. 4) and GAPDH primer set (sense: 5′-ACCACTTTGTCAAGCTCATT-3′ (SEQ ID NO. 5), antisense: 5′-AGTGAGGGTCTCTCTCTTCC-3′) (SEQ ID No. 6) were used for denaturation at 95° C. for four minutes. After the reactions at 23 cycles at 95° C. for 30 seconds, at 52° C. for 30 seconds and at 72° C. for 40 seconds, PCR was performed at 72° C. for four minutes. The PCR product was confirmed by 1.5% agarose gel electrophoresis.

A further series deals with α-tubulin mRNA. In words: RT-PCR of tubulin mRNA from HUVECs. Format: cell-based, Human. As to conditions: 5 uM, 10 uM and 20 uM, 24 hours and 48 hours after treatment. On the procedure: as §2
The next series relates to tumors. The experiment in a line: Cell and animal experiments with KML001 injected after tumors were generated. Format: in vivo.
The next series deals with microtubules. The experiment in a line: Immunohistochemistry of microtubules in HUVECs (confocal microscopy). As to conditions: 1 uM, 5 uM and 10 uM, 24 and 48 hours, concentration dependent. Format: cell-based, Human. How it is done:
HUVECs were cultured in a confocal dish (made by SPL, Korea) with F-12K (Sigma) medium containing 10% FBS and endothelial cell growth supplement (ECGS, E2759, Sigma). After cultivation for 24 hours, the cells were treated with sodium meta arsenite at a concentration of 1 uM, 5 uM and 10 uM. At 24 hours and 48 hours after treatment, the cells were fixed with 3.7% paraformaldehyde at room temperature for 10 minutes. After washing with phosphate buffered saline (PBS) solution three times, the cells were treated with 0.15% Triton X-100 for 15 minutes and then washed three times with PBS solution. After blocking with 2% bovine serum albumin (BSA, Sigma) at room temperature for 60 minutes, the cells were washed three times with PBS solution. Monoclonal antibody against α-tubulin (SantaCruze, sc-32293) was reacted with the cells at room temperature for one hour and then the cells were washed three times with the PBS solution. The cells were then reacted with rat anti-mouse IgG1 secondary antibody (Pharmigen, #A85-1) conjugated to FITC. After being washed three times with PBS solution, they were analyzed using a confocal laser scanning microscope (OLYMPUS FV500,1×81).

Where [4] appears, read: injected after tumors were generated.

For the compound `O=[As][O-].[Na+]` [sodium meta arsenite], the “apoptosis, dependence on concentration” value with HUVECs (10 uM, 20 uM and 50 uM) was “concentration dependent, increasing with increased concentration”. In the series on HUVECs (24 and 48 hours exposure), the apoptosis over time result was “increased over time”. In addition, in series [1] (sodium meta arsenite administered 24 hours or 72 hours after irinotecan, weekly for four weeks), the tumor growth delay result is on record as “Significant tumor growth delay”. Moreover, the tumor regrowth entry in series [1] (sodium meta arsenite alone, 10 mg/kg intraperitoneal) is “regrowth was observed from the periphery after two days”. Further, the “necrosis of the tumor” value in series [1] (sodium meta arsenite alone, 10 mg/kg intraperitoneal, by 24 hours after treatment) is reported as “Massive necrosis in the central part of the tumor”. Moreover, in series [2], the “ischemic damage in liver, spleen or kidney tissues” value was “No ischemic damage was observed”. For the same compound, the “scope of necrotic cell death in the tumor tissues” value in series [3] was “observed to increase”. In addition, the “β-tubulin mRNA level” value in the series with β-tubulin mRNA is recorded as “no change”. For the same compound, in the series with α-tubulin mRNA, the “α-tubulin mRNA levels” value is reported as “no change”. For the same compound, the apoptosis entry with tumors (cell experiments and animal experiments) is listed as “occurred dose-dependently”. Moreover, in the series on tumors (setting [4]), the “necrotic phenomena in tumor tissues” value was “occurred” and the “reduction in tumor volume” value is “no effect”. Moreover, the “total amount of microtubules” value with microtubules was “reduction in the total amount of microtubules”.
